Results as given in US20260103465A1, “GLYCOGEN SYNTHASE KINASE 3 INHIBITORS AND USES THEREOF” (The Broad Institute, Inc., priority 2023, published 2026).
Read-outs that look alike come from different tables or passages of the source.

Tests used:
[1] = biological target: T1, GSK3a (GST-full length GSK3a) (Homo sapiens, UniProt P49840); test: GSK3a TR-FRET kinase inhibition assay; assay type: biochemical
T1 construct: GST-full length GSK3a [SignalChem G08-10G]; purchased SignalChem G08-10G
Method in brief: (§1)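 IC50 derived from normalized 665/615 TR-FRET signal (Tb anti-pSer641 antibody, streptavidin-d2), read after EDTA stop. Reaction: 1 nM GST-full-length enzyme, 30 min compound pre-incubation, 100 min at ambient temperature in Tris pH 7.5 with 1% DMSO, 200 nM biotinylated primed glycogen synthase peptide, ATP 2 μM to 1 mM.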

[2] = biological target: T2, GSK3b (GST-full length GSK3b) (Homo sapiens, UniProt P49841); test: GSK3b TR-FRET kinase inhibition assay; assay type: biochemical
T2 construct: GST-full length GSK3b: [SignalChem G08-9G]; purchased SignalChem G08-9G
Method in brief: as §1

[3] = 1 mM ATP, Table 5, read-out: GSK3α TR-FRET 1 mM ATP Average IC50
[4] = 1 mM ATP, Table 5, read-out: GSK3β TR-FRET 1 mM ATP Average IC50
[5] = 1 mM ATP, Table 3, read-out: GSK3a TR-FRET 1 mM ATP Average IC50
[6] = 1 mM ATP, Table 3, read-out: GSK3b TR-FRET 1 mM ATP Average IC50
[7] = 4 μM ATP, read-out: GSK3α TR-FRET 4 μM ATP GMean IC50
[8] = 2 μM ATP, read-out: GSK3β TR-FRET 2 μM ATP GMean IC50

T2 sequence (P49841 whole entry): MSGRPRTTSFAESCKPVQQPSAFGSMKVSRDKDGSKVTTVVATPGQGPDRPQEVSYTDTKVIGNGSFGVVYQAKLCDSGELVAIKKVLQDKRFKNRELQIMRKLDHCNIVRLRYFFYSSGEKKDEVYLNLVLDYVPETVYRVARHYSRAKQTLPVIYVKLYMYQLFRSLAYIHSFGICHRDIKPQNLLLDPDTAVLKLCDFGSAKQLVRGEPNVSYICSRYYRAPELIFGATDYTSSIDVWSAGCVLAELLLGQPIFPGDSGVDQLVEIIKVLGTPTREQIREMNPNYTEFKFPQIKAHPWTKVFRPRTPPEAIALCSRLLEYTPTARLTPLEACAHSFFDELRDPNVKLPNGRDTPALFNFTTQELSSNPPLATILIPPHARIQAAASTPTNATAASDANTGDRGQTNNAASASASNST
T1 sequence (P49840 whole entry): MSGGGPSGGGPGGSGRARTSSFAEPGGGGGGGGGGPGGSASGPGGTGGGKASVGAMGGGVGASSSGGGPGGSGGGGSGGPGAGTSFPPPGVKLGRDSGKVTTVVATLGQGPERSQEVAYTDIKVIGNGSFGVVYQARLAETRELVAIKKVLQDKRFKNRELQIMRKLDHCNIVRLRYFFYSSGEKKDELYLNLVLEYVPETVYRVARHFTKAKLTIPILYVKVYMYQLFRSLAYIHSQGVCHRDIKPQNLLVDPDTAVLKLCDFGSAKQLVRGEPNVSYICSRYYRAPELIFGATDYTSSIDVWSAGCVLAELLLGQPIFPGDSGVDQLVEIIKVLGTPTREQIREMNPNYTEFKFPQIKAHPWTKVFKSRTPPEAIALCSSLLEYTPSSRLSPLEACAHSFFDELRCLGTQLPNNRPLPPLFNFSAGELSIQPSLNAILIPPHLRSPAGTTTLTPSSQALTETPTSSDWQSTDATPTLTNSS

IC50 [1, 3] [µM] | IC50 [2, 4] [µM] | IC50 [1, 5] [µM] | IC50 [2, 6] [µM] | Structure (SMILES) | further results
5 to 20 | 5 to 20 | – | – | C=C(C)c1cnc2c(c1C#N)C(C)(c1ccccc1)C1=C(CC(C)(C)CC1=O)N2 (single isomer, unassigned) [620B] | –
– | – | 0.1 to 1 | 0.1 to 1 | CC(C)(C)Cn1nccc1-c1cccc(C2(C)C3=C(CC(C)(C)CC3=O)Nc3ncc(F)cc32)c1 (single isomer, unassigned) [Compound 160A] | –
0.1 to 1 | 0.1 to 1 | – | – | CC1(C)CC2=C(C(=O)N1)C(C)(c1cccc(S(C)(=O)=O)c1)c1cc(C3CC3)cnc1N2 (single isomer, unassigned) [647A] | –
– | – | – | – | CCC1(c2cccc(C(F)(F)F)c2)C2=C(CC(C)(C)CC2=O)Nc2ncccc21 (single isomer, unassigned) [Compound 1014B] | IC50 [1, 7]: ≤ 0.1 µM; IC50 [2, 8]: 0.1 to 1 µM
5 to 20 | 1 to 5 | – | – | CC1(C)CC(=O)C2=C(C1)Nc1ncc(C(F)(F)F)c(C3CC3)c1C2(C)c1ccccc1 (single isomer, unassigned) [642A] | –
– | – | – | – | CCC1(c2cccc(-c3cnnc(C)c3)c2)C2=C(CC(C)(C)CC2=O)Nc2ncccc21 (single isomer, unassigned) [Compound 1022B] | IC50 [1, 7]: > 5 µM; IC50 [2, 8]: > 5 µM
– | – | 1 to 5 | 1 to 5 | CC1(C)CC(=O)C2=C(C1)Nc1ncc(F)c(C3CC3)c1C2(C)c1ccccc1 (single isomer, unassigned) [Compound 125B] | –
– | – | 5 to 20 | 1 to 5 | CC(C)c1cnc2c(c1)C(C)(c1ccccc1)C1=C(CC(C)(C)CC1=O)N2 (single isomer, unassigned) [Compound 119A] | IC50 ([1]; 100 μM ATP, read-out: GSK3a 100 μM ATP Average IC50): 0.1 to 1 µM; IC50 ([2]; 100 μM ATP, read-out: GSK3b 100 μM ATP Average IC50): 0.1 to 1 µM
1 to 5 | 1 to 5 | – | – | CC1(C)CC2=C(C(=O)N1)C(C)(c1ccccc1)c1c(ncc(C(F)F)c1C#N)N2 (single isomer, unassigned) [628A] | –
≤ 0.1 | 5 to 20 | – | – | CC1(C)CC(=O)C2=C(C1)Nc1ncccc1C2(C)c1cccc(N(CC2CC2)c2ncccn2)c1 (single isomer, unassigned) [652B] | –
> 20 | 5 to 20 | – | – | CN(C)c1cnc2c(c1C#N)C(C)(c1ccccc1)C1=C(CC(C)(C)CC1=O)N2 (single isomer, unassigned) [624B] | –
5 to 20 | 5 to 20 | – | – | CC1(C)CC(=O)C2=C(C1)Nc1ncc(C#N)c(C#N)c1C2(C)c1ccccc1 (single isomer, unassigned) [605B] | –
– | – | 5 to 20 | 1 to 5 | CC1(C)CC(=O)C2=C(C1)Nc1ncc(C(F)(F)F)cc1C2(C)c1ccccc1 (single isomer, unassigned) [Compound 128A] | –
– | – | ≤ 0.1 | 0.1 to 1 | COc1cncc(F)c1-c1cccc(C2(C)C3=C(CC(C)(C)CC3=O)Nc3ncc(F)cc32)c1 (single isomer, unassigned) [Compound 156A] | –
5 to 20 | 5 to 20 | – | – | Cn1ncc2c3c(ncc21)NC1=C(C(=O)CC(C)(C)C1)C3(C)c1cccc(S(C)(=O)=O)c1 (single isomer, unassigned) [649B] | –
0.1 to 1 | 0.1 to 1 | – | – | CC1(C)CC2=C(C(=O)[C@@H]1F)[C@@](C)(c1ccccc1)c1c(ncc(F)c1C#N)N2 (single isomer, unassigned) [Compound 616A] | –
– | – | – | – | CCC1(c2cccc(-c3ccncc3C)c2)C2=C(CC(C)(C)CC2=O)Nc2ncccc21 (single isomer, unassigned) [Compound 1020A] | IC50 [1, 7]: 1 to 5 µM; IC50 [2, 8]: > 5 µM
– | – | – | – | CCC1(c2ccccc2)C2=C(CC(C)(C)NC2=O)Nc2ncc(F)cc21 (single isomer, unassigned) [Compound 1007A] | IC50 [1, 7]: > 5 µM; IC50 [2, 8]: > 5 µM
– | – | – | – | CCC1(c2cccc(-c3ccnc(C)c3C)c2)C2=C(CC(C)(C)CC2=O)Nc2ncc(F)cc21 (single isomer, unassigned) [Compound 1035B] | IC50 [1, 7]: 1 to 5 µM; IC50 [2, 8]: 1 to 5 µM
– | – | 0.1 to 1 | 1 to 5 | CCC1(c2cccc(-c3ccnc(C)c3C)c2)C2=C(CC(C)(C)CC2=O)Nc2ncccc21 (single isomer, unassigned) [Compound 147A] | –
